# Test results published in patent US12558345B2, “CHK1/2 inhibitors for use in the treatment of neuroblastomas and/or soft tissue sarcomas” (Eli Lilly and Company, priority 2015, dated 2026).
# Legend:
# Type in all cases: in vivo, mouse
# [1] = system: CTG-1006 LMS patient-derived xenograft; test: Xenograft Tumor Model CTG-1006; conditions: comparator day 27, p-value <0.001
# From the text: For all “CTG” models (encompassing human RMS, DSRCT, EWS, OS and LMS patient-derived xenograft models), female NCr nude spontaneous mutant mice (5-8 weeks old, Taconic) are implanted unilaterally in the flank region with tumor fragments harvested from donor animals, each implanted from a specific passage lot.
# (§1) For all “ST” models (encompassing RMS and LMS), patient-derived xenografts are established from viable human tumor tissue and are serially passaged in animals a limited number of times to maintain tumor heterogeneity. In subcutaneous models, athymic nude mice (Crl:NU(NCr)-Foxn1nu) or CB-17 SCID mice (CRL-CB17/Icr-Prkdcscid/IcrIcoCrl) are injected or implanted unilaterally into the flank with tumor fragments harvested from host animals, each implanted from a specific passage lot. For all studies, measure tumor growth and body weight twice per week beginning on the seventh day after implantation. When tumor size reaches 150-300 mm^3, randomize animals and group into groups of 4-7 animals. Prepare test compound in an appropriate vehicle (e.g. vehicle can be 20% Captisol® in sterile water) and administer subcutaneously for three consecutive days followed by a four day dosing holiday and repeat for a minimum of four weeks. Tumor response is determined by tumor volume measurement performed twice per week during the course of treatment.
# [2] = system: CTG-1213 RMS patient-derived xenograft; test: Xenograft Tumor Model CTG-1213
# Description: (§2) The efficacy of 5-(5-(2-(3-aminopropoxy)-6-methoxyphenyl)-1H-pyrazol-3-ylamino)pyrazine-2-carbonitrile methanesulfonic acid monohydrate is measurable in vivo in mouse models of neuroblastomas and human pediatric and adult sarcomas. 5-(5-(2-(3-Aminopropoxy)-6-methoxyphenyl)-1H-pyrazol-3-ylamino)pyrazine-2-carbonitrile methanesulfonic acid monohydrate (10 mg/kg) can be administered subcutaneously to nude mice bearing either cell-derived xenografts (CDX) or patient-derived xenografts (PDX) of human rhabdomyosarcoma, desmoplastic small round cell tumor (DSRCT), osteosarcoma, and Ewing's sarcoma using a 3 day on, 4 day off b.i.d. dosing schedule. Tumor volume and body weight can be measured two times per week. Tumor-specific parameters can be evaluated by immumohistochemistry. […]
# (§3) For all “ST” models (encompassing RMS and LMS), patient-derived xenografts are established from viable human tumor tissue and are serially passaged in animals a limited number of times to maintain tumor heterogeneity. […] Tumor response is determined by tumor volume measurement performed twice per week during the course of treatment.
# [3] = system: Ewing's Sarcoma xenograft models; test: Sarcoma xenograft models by tumor subtype: Ewing's Sarcoma; conditions: age of patients 8-17 years
# Description: as §2, §3
# [4] = system: CTG-0241 OS patient-derived xenograft; test: Xenograft Tumor Model CTG-0241; conditions: comparator day 28, p-value 0.019
# Description: as §2, §3
# [5] = system: SH-SY5Y human NBM cancer cell xenograft; test: Xenograft Tumor Model SH-SY5Y; conditions: comparator day 28, 8 mg/kg dose, p-value <0.001
# Description: (§4) The following protocol can be used to measure reductions in tumor volume in response to an active pharmaceutical ingredient. Expand human NBM cancer cells SH-SY5Y (ATCC, #CRL-2226) in culture, harvest, and inject 5×10^6 cells in 200 μL of 1:1 solution of HBSS and Matrigel® subcutaneously into the right rear flank of female CD-1 nu/nu mice (20-24 g, Charles River Laboratories). Expand human NBM cancer cells KELLY (Sigma-#92110411) in culture, harvest, and inject 5×10^6 cells in 200 μL of 1:1 solution of HBSS and Matrigel® subcutaneously into the right rear flank of female CB-17 SCID mice (20-24 g, Charles River Laboratories). Expand human NBM cancer cells IMR-32 (ATCC, #CCL-127) in culture, harvest, and inject 5×10^6 cells in 200 μL of 1:1 solution of HBSS and Matrigel® subcutaneously into the right rear flank of female CB-17 SCID mice (20-24 g, Charles River Laboratories).
# as §3
# [6] = system: IMR-32 human NBM cancer cell xenograft; test: Xenograft Tumor Model IMR-32; conditions: IMR-32, NBM, comparator day 66, p-value <0.001
# Description: as §4, §3
# [7] = system: CTG-0926 DSRCT patient-derived xenograft; test: Xenograft Tumor Model CTG-0926; conditions: comparator day 28, p-value <0.001
# Description: as §2, §3
# [8] = system: ST240 LMS patient-derived xenograft; test: Xenograft Tumor Model ST240; conditions: comparator day 29, p-value 0.022
# Description: as §1
compound,measurement,setting,value
"COc1cccc(OCCCN)c1-c1cc(Nc2cnc(C#N)cn2)n[nH]1 [Example 5, 5-(5-(2-(3-Aminopropoxy)-6-methoxyphenyl)-1H-pyrazol-3-ylamino)pyrazine-2-carbonitrile methanesulfonic acid monohydrate]",% Regression,[1],−24%
same,% T/C,"[2]; comparator day 18, p-value 0.004",18%
same,% Regression,"[2]; comparator day 36, p-value <0.001",−65%
same,Result of Treatment: Stable Disease (models),[3],1/4 Stable Disease
same,% T/C,[4],48%
same,% Regression,[5],−21%
same,% Regression,[6],−72%
same,% Regression,[7],−76%
same,% T/C,[8],67%
